Patent US20090054512A1, “USE OF ORGANIC COMPOUNDS” (priority 2006, published 2009)

System: patients with type 2 diabetes
Assay: Randomized, double-blind, two-period crossover clinical study of 100 mg vildagliptin once daily in the morning or the evening
Type: in vivo, human

## N#C[C@@H]1CCCN1C(=O)CNC12CC3CC(CC(O)(C3)C1)C2 [vildagliptin, (S)-1-[(3-hydroxy-1-adamantyl)amino]acetyl-2-cyano-pyrrolidine]
Administered before or with the evening meal, especially patients with baseline HbA1c>8.0%
  overnight HGP (hepatic glucose production) reduction: unexpected additional benefit on the overnight HGP reduction
At least 100 mg before or with the morning meal, or before or with the lunch, type 2 diabetes, especially baseline HbA1c>8.0%
  overnight hepatic glucose production: can be reduced
